Laboratory results reported in patent publication US20240109910A1, “HEXAHYDRO-5,8-EPOXYCYCLOHEPTA[c]PYRAZOLE DERIVATIVES USEFUL AS MODULATORS OF THE CB1 AND / OR CB2 RECEPTORS” (JANSSEN PHARMACEUTICA NV, priority 2019, published 2024).

Assays:
hCB2 receptor = hCB2 receptor (Homo sapiens, UniProt P34972); experiment: Agonism of CB2 by detection of cAMP using HTRF; format: cell-based; conditions: CHO cells stably expressing CB2 receptor; for EC50: cAMP HTRF, forskolin-stimulated, average if tested more than once, read-out: hCB2 CHO EC50; for Emax: normalized to DMSO and maximal activation (5 nM CP55940)
hCB2 receptor, sequence (P34972 whole entry): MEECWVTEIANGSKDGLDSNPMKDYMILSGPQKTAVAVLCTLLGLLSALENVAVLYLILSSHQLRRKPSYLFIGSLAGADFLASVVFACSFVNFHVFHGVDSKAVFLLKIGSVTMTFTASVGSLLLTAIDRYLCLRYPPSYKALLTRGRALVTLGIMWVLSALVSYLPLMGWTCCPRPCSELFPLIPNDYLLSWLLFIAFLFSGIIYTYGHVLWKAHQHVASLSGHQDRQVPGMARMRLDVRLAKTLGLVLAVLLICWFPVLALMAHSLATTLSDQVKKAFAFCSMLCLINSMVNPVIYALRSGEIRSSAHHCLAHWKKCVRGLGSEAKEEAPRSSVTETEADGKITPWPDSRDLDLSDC
Protocol: (§1) Method for Assaying Agonism of CB1 or CB2 by Detection of cAMP Using Homogeneous Time-Resolved Fluorescence (HTRF®)
(§2) CHOP-K1 cells stably expressing the CB1 receptor (PerkinElmer, ES-110-C) or the CB2 receptor (PerkinElmer, ES-111-CF) were seeded into 384 well white TC-treated plates (Greiner 781080) at 7000 cells per well in Ham's media (Gibco #31765-035) supplemented with 10% FBS (Gibco #16000-044) and 500 μg/mL Geneticin (Gibco #10131-027) and cultured overnight. The next day, plates were washed one time in assay buffer (HBSS with Ca^2+ and Mg^2+ (Corning #21-023-CV)+20 mM HEPES (Corning #25-060-Cl) and 0.01% BSA (Sigma A2153)). In a separate compound plate (Greiner 781201-906), 50 nL of test compound or DMSO was transferred using the Echo 550 (Labcyte), then 40 μL/well of assay buffer with 0.5 mM IBMX, 2 μM Forskolin (Sigma F3917), and 0.01% BSA was added. For the CB1 assay, assay buffer was dumped from the cell plate and fresh assay buffer containing 0.5 mM IBMX (Sigma I5679) was added at 30 μL/well, and the plate was incubated for 1 hr at 37° C., 5% CO2. Following the IBMX pre-treatment step, buffer was dumped from the cell plate, and 20 μL/well of the assay buffer with test compound was transferred into the cell plate with a subsequent incubation of 20 min at room temperature. Reagents for cAMP detection (cisbio 62AM4PEJ) were prepared and subsequently transferred to the cell plate at 20 μL/well. Following a 1 hr incubation at room temperature, the plate was read on the Pherastar FX (BMG, excitation 320 nm, detection at 620 nm (donor) and 665 nm (acceptor)). The ratio of signal at 665 nm/620 nm was determined for each well in the plate. For each assay day, a cAMP standard curve was run in parallel to assess the range of response and determine the concentration of cAMP in each well. Control wells (n=16 of each) with no activation of CB1 receptor (DMSO) and maximal activation (5 nM CP55940, Sigma) were used to normalize the data and to determine signal-to-background ratio and Z′. For the CB2 assay, conditions were as described above for the CB1 assay, except that the IBMX preincubation step was not used and that the 20 min compound incubation step occurred in the incubator at 37° C., 5% CO2.
(§3) EC50 values were calculated from dose response curves by nonlinear regression analysis using PRISM software.
(§4) Representative compounds of the present invention were tested according to the procedures described in Biological Example 1 above, with results as listed in Table 3, below. If a compound was tested more than once (due to multiple samples or batches), then the value listed in Table 3 below represents the average of the measured values.

hCB1 receptor = hCB1 receptor (Homo sapiens, UniProt P21554); experiment: Agonism of CB1 by detection of cAMP using HTRF; format: cell-based; conditions: CHO cells stably expressing CB1 receptor; for EC50: cAMP HTRF, forskolin-stimulated, average if tested more than once, read-out: hCB1 CHO EC50; for Emax: normalized to DMSO and maximal activation (5 nM CP55940)
hCB1 receptor, sequence (P21554 whole entry): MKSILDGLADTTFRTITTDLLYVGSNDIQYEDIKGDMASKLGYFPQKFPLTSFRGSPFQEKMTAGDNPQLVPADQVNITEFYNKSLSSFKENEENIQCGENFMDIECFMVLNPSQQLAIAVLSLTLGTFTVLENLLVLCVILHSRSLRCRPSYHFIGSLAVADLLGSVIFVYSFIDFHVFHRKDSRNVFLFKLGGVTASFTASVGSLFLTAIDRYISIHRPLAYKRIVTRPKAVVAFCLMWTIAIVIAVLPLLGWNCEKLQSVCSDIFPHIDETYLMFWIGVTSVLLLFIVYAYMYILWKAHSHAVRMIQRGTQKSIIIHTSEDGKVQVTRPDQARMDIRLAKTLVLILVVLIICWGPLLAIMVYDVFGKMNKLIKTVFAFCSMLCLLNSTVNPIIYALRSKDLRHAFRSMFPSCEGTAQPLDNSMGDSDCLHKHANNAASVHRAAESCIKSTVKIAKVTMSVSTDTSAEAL
Protocol: as §1, §2, §3, §4

Row | Compound | EC50 (hCB2 receptor) | Emax (hCB2 receptor) | EC50 (hCB1 receptor) | Emax (hCB1 receptor)
1 | O=C(NC12CC(C1)C2)c1nn(-c2cnccn2)c2c1CC1CCC2O1 (stereo not shown) [Compound 12, N-(bicyclo[1.1.1]pentan-1-yl)-1-(pyrazin-2-yl)-1,4,5,6,7,8-hexahydro-5,8-epoxycyclohepta[c]pyrazole-3-carboxamide] | 0.24 nM | 99.5% | 1510 nM | 90.8%
2 | O=C(NC12CC3CC(CC1C3)C2)c1nn(-c2cnccn2)c2c1CC1CCC2O1 [Compound 13, N-((2R,3as,5S,6as)-hexahydro-2,5-methanopentalen-3a(1H)-yl)-1-(pyrazin-2-yl)-1,4,5,6,7,8-hexahydro-5,8-epoxycyclohepta[c]pyrazole-3-carboxamide] | 0.02 nM | 100% | 16.6 nM | 111%
3 | O=C(NC12CCC(CC1)CC2)c1nn(-c2cnccn2)c2c1CC1CCC2O1 (stereo not shown) [Compound 14, N-(bicyclo[2.2.2]octan-1-yl)-1-(pyrazin-2-yl)-1,4,5,6,7,8-hexahydro-5,8-epoxycyclohepta[c]pyrazole-3-carboxamide] | 0.06 nM | 100% | 61.8 nM | 103%
4 | CC(C)(C)[C@@H](CO)NC(=O)c1nn(-c2c[n+]([O-])ccn2)c2c1C[C@H]1CC[C@@H]2O1 [Compound 16, 3-((5R,8S)-3-(((S)-1-hydroxy-3,3-dimethylbutan-2-yl)carbamoyl)-5,6,7,8-tetrahydro-5,8-epoxycyclohepta[c]pyrazol-1(4H)-yl)pyrazine 1-oxide] | 0.09 nM | 101% | 352 nM | 91.3%
5 | O=C(NC1(C(F)(F)F)CCC1)c1nn(-c2c[n+]([O-])ccn2)c2c1CC1CCC2O1 (stereo not shown) [Compound 18, 3-(3-((1-(trifluoromethyl)cyclobutyl)carbamoyl)-5,6,7,8-tetrahydro-5,8-epoxycyclohepta[c]pyrazol-1(4H)-yl)pyrazine 1-oxide] | 0.04 nM | 99.9% | 198 nM | 90.7%
6 | O=C(NC12CC(C1)C2)c1nn(-c2c[n+]([O-])ccn2)c2c1CC1CCC2O1 (stereo not shown) [Compound 20, 3-(3-(bicyclo[1.1.1]pentan-1-ylcarbamoyl)-5,6,7,8-tetrahydro-5,8-epoxycyclohepta[c]pyrazol-1(4H)-yl)pyrazine 1-oxide] | 0.05 nM | 100% | 1780 nM | 91%
7 | O=C(NC12CC3CC(CC1C3)C2)c1nn(-c2c[n+]([O-])ccn2)c2c1CC1CCC2O1 [Compound 21, 3-(3-(((2R,3as,5S,6as)-hexahydro-2,5-methanopentalen-3a(1H)-yl)carbamoyl)-5,6,7,8-tetrahydro-5,8-epoxycyclohepta[c]pyrazol-1(4H)-yl)pyrazine 1-oxide] | 0.02 nM | 99.9% | 28.2 nM | 94.9%
8 | O=C(NC12CCC(CC1)CC2)c1nn(-c2c[n+]([O-])ccn2)c2c1CC1CCC2O1 (stereo not shown) [Compound 22, 3-(3-(bicyclo[2.2.2]octan-1-ylcarbamoyl)-5,6,7,8-tetrahydro-5,8-epoxycyclohepta[c]pyrazol-1(4H)-yl)pyrazine 1-oxide] | 0.02 nM | 99.7% | 48.5 nM | 96.5%
9 | CC(C)(C)c1cnc(-c2nn(-c3c[n+]([O-])ccn3)c3c2CC2CCC3O2)s1 (stereo not shown) [Compound 24, 3-(3-(5-(tert-butyl)thiazol-2-yl)-5,6,7,8-tetrahydro-5,8-epoxycyclohepta[c]pyrazol-1(4H)-yl)pyrazine 1-oxide] | 0.06 nM | 97.8% | 65.7 nM | 95.5%
10 | CCC(C)(C)c1noc(-c2nn(-c3c[n+]([O-])ccn3)c3c2CC2CCC3O2)n1 (stereo not shown) [Compound 25, 3-(3-(3-(tert-pentyl)-1,2,4-oxadiazol-5-yl)-5,6,7,8-tetrahydro-5,8-epoxycyclohepta[c]pyrazol-1(4H)-y)pyrazine 1-oxide] | 0.02 nM | 99.5% | 114 nM | 98.9%
